We go through 35 molecules from US9637491B2, “Pyrazolo[4,3-D]pyrimidines as kinase inhibitors” (Origenis GmbH, priority 2012, dated 2017).

Each structure is given as a SMILES string.

In the experiment the target is T1, SYK kinase (Homo sapiens, UniProt P43405).
T1 construct: purchased Invitrogen, Carlsbad
Nature of the experiment: SYK assay (OMNIA Kinase Assay, Invitrogen). The format is biochemical. Conditions: SYK Activities; 1 mM ATP, 10 μM Omnia Peptide Substrate Tyr 7, 30° C. In outline: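 SYK was added last to start phosphorylation of a chelation-enhanced SOX peptide substrate (10 μM) in the presence of 1 mM ATP and 0.2 mM DTT at 30° C. Kinetic readings at λex 360/λem 485 nm over 30 min gave velocities, fitted sigmoidally against compound concentration to give IC50.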

As a reminder, the IC50 is the concentration that gives 50% inhibition. High values mean lower potency, low ones higher potency. With `CC1CC1c1nc(Nc2cnn(C3CCOCC3)c2)c2[nH]ncc2n1` (centres unmarked) [Example 103, 5-(2-methylcyclopropyl)-N-(1-(tetrahydro-2H-pyran-4-yl)-1H-pyrazol-4-yl)-1H-pyrazolo[4,3-d]pyrimidin-7-amine], the half-maximal inhibitory concentration (IC50) lay in the range of 100 to 1000 nM. The value for `OCCn1cc(Nc2nc(-c3ncco3)nc3cn[nH]c23)cn1` [Example 253, 2-(4-((5-(oxazol-2-yl)-1H-pyrazolo[4,3-d]pyrimidin-7-yl)amino)-1H-pyrazol-1-yl)ethan-1-ol] was 100 to 1000 nM; that for `c1cc(-c2nc(Nc3cnn(C4CCOCC4)c3)c3[nH]ncc3n2)co1` [Example 110, 5-(furan-3-yl)-N-(1-(tetrahydro-2H-pyran-4-yl)-1H-pyrazol-4-yl)-1H-pyrazolo[4,3-d]pyrimidin-7-amine] was 10 to 100 nM. With `FCCn1cc(Nc2nc(C3CCC3)nc3cn[nH]c23)cn1` [Example 363, 5-cyclobutyl-N-(1-(2-fluoroethyl)-1H-pyrazol-4-yl)-1H-pyrazolo[4,3-d]pyrimidin-7-amine], the IC50 was 10 to 100 nM. Regarding `Fc1cc(Nc2nc(-c3ccc4cn[nH]c4c3)nc3cn[nH]c23)ccc1N1CCOCC1` [Example 46, N-(3-fluoro-4-morpholinophenyl)-5-(1H-indazol-6-yl)-1H-pyrazolo[4,3-d]pyrimidin-7-amine], the IC50 fell in the range of 10 to 100 nM. The same measure for `COc1cc(Nc2nc(-c3c(F)cccc3Cl)nc3cn[nH]c23)ccc1N1CCOCC1` [Example 514, 5-(2-chloro-6-fluorophenyl)-N-(3-methoxy-4-morpholinophenyl)-1H-pyrazolo[4,3-d]pyrimidin-7-amine]: 10 to 100 nM. The value for `c1nn(C2CCOCC2)cc1Nc1nc(-c2nc3c(s2)CCCC3)nc2cn[nH]c12` [Example 496, N-(1-(tetrahydro-2H-pyran-4-yl)-1H-pyrazol-4-yl)-5-(4,5,6,7-tetrahydrobenzo[d]thiazol-2-yl)-1H-pyrazolo[4,3-d]pyrimidin-7-amine] was 10 to 100 nM. The same measure for `CC(C)(C)N1CCC(n2cc(Nc3nc(-c4ccoc4)nc4cn[nH]c34)cn2)CC1` [Example 291, N-(1-(1-(tert-butyl)piperidin-4-yl)-1H-pyrazol-4-yl)-5-(furan-3-yl)-1H-pyrazolo[4,3-d]pyrimidin-7-amine]: below 10 nM. `CC(C)Cn1cc(Nc2nc(-c3c(F)cccc3F)nc3cn[nH]c23)cn1` [Example 440, 5-(2,6-difluorophenyl)-N-(1-isobutyl-1H-pyrazol-4-yl)-1H-pyrazolo[4,3-d]pyrimidin-7-amine] showed an IC50 of 100 to 1000 nM. The value for `COc1ccc(Nc2nc(-c3cnn(C(C)C(C)C)c3)nc3cn[nH]c23)cc1OC` (centres unmarked) [Example 511, N-(3,4-dimethoxyphenyl)-5-(1-(3-methylbutan-2-yl)-1H-pyrazol-4-yl)-1H-pyrazolo[4,3-d]pyrimidin-7-amine] was 100 to 1000 nM.

In the case of `CC(C)(C)N1CCN(c2ccc(Nc3nc(-c4ccc5cn[nH]c5c4)nc4cn[nH]c34)cc2)CC1` [Example 45, N-(4-(4-(tert-butyl)piperazin-1-yl)phenyl)-5-(1H-indazol-6-yl)-1H-pyrazolo[4,3-d]pyrimidin-7-amine], the IC50 is below 10 nM. The same measure for `O=C(c1ccc(Nc2nc(-c3ccco3)nc3cn[nH]c23)cc1F)N1CCOCC1` [Example 197, (2-fluoro-4-((5-(furan-2-yl)-1H-pyrazolo[4,3-d]pyrimidin-7-yl)amino)phenyl)(morpholino)methanone]: 100 to 1000 nM; for `FCCn1cc(Nc2nc(-c3ccc4cn[nH]c4c3)nc3cn[nH]c23)cn1` [Example 417, N-(1-(2-fluoroethyl)-1H-pyrazol-4-yl)-5-(1H-indazol-6-yl)-1H-pyrazolo[4,3-d]pyrimidin-7-amine]: below 10 nM; for `COCCCn1cc(Nc2nc(-c3nc4ccccc4s3)nc3cn[nH]c23)cn1` [Example 412, 5-(benzo[d]thiazol-2-yl)-N-(1-(3-methoxypropyl)-1H-pyrazol-4-yl)-1H-pyrazolo[4,3-d]pyrimidin-7-amine]: below 10 nM. `COCC(COC)n1cc(Nc2nc(-c3cccc(-c4cccnc4)c3)nc3cn[nH]c23)cn1` [Example 467, N-(1-(1,3-dimethoxypropan-2-yl)-1H-pyrazol-4-yl)-5-(3-(pyridin-3-yl)phenyl)-1H-pyrazolo[4,3-d]pyrimidin-7-amine] showed an IC50 of 100 to 1000 nM.

`Cc1c(Nc2nc(-c3ccoc3)nc3cn[nH]c23)cnn1C1CCOCC1` [Example 295, 5-(furan-3-yl)-N-(5-methyl-1-(tetrahydro-2H-pyran-4-yl)-1H-pyrazol-4-yl)-1H-pyrazolo[4,3-d]pyrimidin-7-amine] returned an IC50 of 100 to 1000 nM. `CN1CCN(c2ccc(Nc3nc(-c4ccco4)nc4cn[nH]c34)cn2)CC1` [Example 114, 5-(furan-2-yl)-N-(6-(4-methylpiperazin-1-yl)pyridin-3-yl)-1H-pyrazolo[4,3-d]pyrimidin-7-amine]: the IC50 lay in the range of 100 to 1000 nM.

As for `O=C(C1CC1)N1CCCc2ccc(Nc3nc(C4CC4)nc4cn[nH]c34)cc21` [Example 503, cyclopropyl(7-((5-cyclopropyl-1H-pyrazolo[4,3-d]pyrimidin-7-yl)amino)-3,4-dihydroquinolin-1(2H)-yl)methanone], the IC50 lay in the range of 100 to 1000 nM. The same measure for `O=C1COc2ccc(Nc3nc(C4CC4)nc4cn[nH]c34)cc2N1` [Example 21, 6-((5-cyclopropyl-1H-pyrazolo[4,3-d]pyrimidin-7-yl)amino)-2H-benzo[b][1,4]oxazin-3(4H)-one]: 10 to 100 nM. In turn, `Oc1c(Cl)cc(Nc2nc(-c3c(F)cccc3F)nc3cn[nH]c23)cc1Cl` [Example 540, 2,6-dichloro-4-((5-(2,6-difluorophenyl)-1H-pyrazolo[4,3-d]pyrimidin-7-yl)amino)phenol] came in with an IC50 of 10 to 100 nM. The value for `CC(C)n1cc(Nc2nc(-c3ccoc3)nc3cn[nH]c23)cn1` [Example 220, 5-(furan-3-yl)-N-(1-isopropyl-1H-pyrazol-4-yl)-1H-pyrazolo[4,3-d]pyrimidin-7-amine] was below 10 nM; that for `COCCn1cc(Nc2nc(C3CC3)nc3cn[nH]c23)cn1` [Example 194, 5-cyclopropyl-N-(1-(2-methoxyethyl)-1H-pyrazol-4-yl)-1H-pyrazolo[4,3-d]pyrimidin-7-amine] was 100 to 1000 nM. `CC(=O)N1CCN(c2ccc(Nc3nc(C(C)C)nc4cn[nH]c34)cc2)CC1` [Example 180, 1-(4-(4-((5-isopropyl-1H-pyrazolo[4,3-d]pyrimidin-7-yl)amino)phenyl)piperazin-1-yl)ethan-1-one]: the IC50 lay in the range of 100 to 1000 nM. The same measure for `CC(C)(C#N)n1cc(Nc2nc(-c3ccc4cn[nH]c4c3)nc3cn[nH]c23)cn1` [Example 416, 2-(4-((5-(1H-indazol-6-yl)-1H-pyrazolo[4,3-d]pyrimidin-7-yl)amino)-1H-pyrazol-1-yl)-2-methylpropanenitrile]: 10 to 100 nM.

`CC(C)n1cc(-c2nc(Nc3ccc(N4CCOCC4)cc3)c3[nH]ncc3n2)cn1` [Example 421, 5-(1-isopropyl-1H-pyrazol-4-yl)-N-(4-morpholinophenyl)-1H-pyrazolo[4,3-d]pyrimidin-7-amine] returned a half-inhibitory concentration (IC50) of 10 to 100 nM. `Fc1cc(Nc2nc(-c3c(F)cccc3F)nc3cn[nH]c23)ccc1N1CCOCC1` [Example 11, 5-(2,6-difluorophenyl)-N-(3-fluoro-4-morpholinophenyl)-1H-pyrazolo[4,3-d]pyrimidin-7-amine] returned a concentration for half-maximal inhibition (IC50) of 100 to 1000 nM. The same measure for `FC(F)(F)Cn1cc(Nc2nc(-c3ccco3)nc3cn[nH]c23)cn1` [Example 377, 5-(furan-2-yl)-N-(1-(2,2,2-trifluoroethyl)-1H-pyrazol-4-yl)-1H-pyrazolo[4,3-d]pyrimidin-7-amine]: 10 to 100 nM. The same measure for `c1cc(N2CCOCC2)ccc1Nc1nc(-c2ccc3[nH]ncc3c2)nc2cn[nH]c12` [Example 179, 5-(1H-indazol-5-yl)-N-(4-morpholinophenyl)-1H-pyrazolo[4,3-d]pyrimidin-7-amine]: 10 to 100 nM; for `CC(=O)N1CCC(n2cc(Nc3nc(-c4ccoc4)nc4cn[nH]c34)cn2)CC1` [Example 200, 1-(4-(4-((5-(furan-3-yl)-1H-pyrazolo[4,3-d]pyrimidin-7-yl)amino)-1H-pyrazol-1-yl)piperidin-1-yl)ethan-1-one]: below 10 nM.

`COCCn1ncc(Nc2nc(-c3ccco3)nc3cn[nH]c23)c1N(C)C` [Example 404, N4-(5-(furan-2-yl)-1H-pyrazolo[4,3-d]pyrimidin-7-yl)-1-(2-methoxyethyl)-N5,N5-dimethyl-1H-pyrazole-4,5-diamine] had a 50% inhibitory concentration (IC50) of 100 to 1000 nM. Take `CC(C)C(C)n1cc(Nc2nc(-c3ccoc3)nc3cn[nH]c23)cn1` (centres unmarked) [Example 482, 5-(furan-3-yl)-N-(1-(3-methylbutan-2-yl)-1H-pyrazol-4-yl)-1H-pyrazolo[4,3-d]pyrimidin-7-amine]: the IC50 lay in the range of 10 to 100 nM. The same measure for `CC(C)(C#N)n1cc(Nc2nc(-c3ccco3)nc3cn[nH]c23)cn1` [Example 211, 2-(4-((5-(furan-2-yl)-1H-pyrazolo[4,3-d]pyrimidin-7-yl)amino)-1H-pyrazol-1-yl)-2-methylpropanenitrile]: 100 to 1000 nM.

`CC(=O)N1CCC(n2cc(Nc3nc(-c4ncco4)nc4cn[nH]c34)cn2)CC1` [Example 257, 1-(4-(4-((5-(oxazol-2-yl)-1H-pyrazolo[4,3-d]pyrimidin-7-yl)amino)-1H-pyrazol-1-yl)piperidin-1-yl)ethan-1-one] had an IC50 of 100 to 1000 nM. The same measure for `c1nc(-c2nc(Nc3ccc(N4CCOCC4)cc3)c3[nH]ncc3n2)co1` [Example 48, N-(4-morpholinophenyl)-5-(oxazol-4-yl)-1H-pyrazolo[4,3-d]pyrimidin-7-amine]: 100 to 1000 nM; for `COc1cc(Nc2nc(-c3ccno3)nc3cn[nH]c23)ccc1N1CCOCC1` [Example 71, 5-(isoxazol-5-yl)-N-(3-methoxy-4-morpholinophenyl)-1H-pyrazolo[4,3-d]pyrimidin-7-amine]: 100 to 1000 nM.
